Assay results from patent US12605453B2, “CP2C-targeting peptide-based anticancer agent” (Industry-University Cooperation Foundation Hanyang …, priority 2019, dated 2026).
Where a SMILES comes first, the peptide text is derived from it.

Tests used:
[1] = tested on: lung cancer cell lines (A549, PC9, KCL22); assay: Immunoblot of CP2c pathway proteins in lung cancer cell lines treated with ACP52C; type: cell-based
Excerpt: (§1) Since MDM2p60 is known to be a protein in which the C-terminal region of MDM2p90 comprising sites (S386, S395, and S407) phosphorylated by ATM is deleted, it was speculated that the MDM2 degradation would not be properly regulated by ACP52C treatment (FIG. 29, FIGS. 30a to 30c).

[2] = Half-life in solution containing 10% serum by HPLC; type: in vitro ADME; settings: HPLC after removing serum proteins
Experimental: (§2) The ACP52C half-life in the solution containing serum was analyzed by HPLC (model: UHPLC DIONEX Ultimate 3000; Flow=1.000 ml/min) after incubation of ACP52C in the solution containing 10% serum for various times and then removing serum proteins with Centricon (Mw10,000) before HPLC analysis. […] Meanwhile, after injecting ACP52C into the mouse via tail vein, blood samples were extracted over time and the degree of ACP52C degradation in the blood samples was analyzed by HPLC.

[3] = tested on: CHK1/2, CDC25c, CDK1, cyclin B, caspases; assay: Expression of cell cycle and apoptosis marker proteins after ACP52C treatment; type: cell-based
[4] = Degradation in mouse blood samples after tail vein injection, HPLC; type: in vivo
Experimental: as §2

[5] = Preliminary repeated toxicity test of ACP52C; type: in vivo, mouse; settings: 100 mg/kg and 1000 mg/kg repeatedly administered twice
Experimental: A repeated toxicity test for the in vivo administration of ACP52CGK was conducted using female and male mice. […] As a full-scale experiment, after intravenous infusion of ACP52CGK for 28 days at 3-day intervals into the solvent group and high-dose group (100 mg/Kg) of 6 males and females each, the weight change, drinking water intake, and main histological analysis of organs, organ weight, hematological tests and blood biochemical tests were analyzed.

[6] = ELISA for antibody formation in sera of injected rabbits (immunogenicity); settings: rabbit, in vivo
Excerpt: To verify this, immunogenicity of ACP52CG and ACP52CK was directly tested in the process of deriving the final new drug candidate. Since the final candidate material might be a C-16 palmitoyl acid-conjugated ACP52C peptide, which is not different with ACP52CG and ACP52CK in terms of chemical composition, it was decided to analyze whether antibodies were formed on ACP52CG and ACP52CK. […] Therefore, it was concluded that the final candidate material (ACP52CGK) would also not show immunogenicity in the human body (FIG. 21).

[7] = tested on: various cancer cell lines; assay: Anticancer effect of ACP52C in various carcinomas (GI50, FIG. 1); type: cell-based
Excerpt: FIG. 1 illustrates GI50 values dependent upon ACP52C treatment in various cancer cell lines.
The selected peptide binds to CP2c and inhibits the formation of a transcription factor complex including CP2c (CP2c homotetramer and CP2c/CP2b/PIAS1 heterohexamer), thereby indirectly interfering with DNA binding of CP2c.

[8] = mouse, in vivo
Experimental: To analyze the in vivo half-life of ACP52CGK, Cy5-labeled ACP52CGK was injected into the tail vein of the mouse, and then the fluorescence intensity remaining in the mouse body was measured over time by live imaging process.

cell cycle (G2/M, subG1) = assay: FACS cell cycle analysis after cell cycle synchronization; type: cell-based
Excerpt: The growth inhibitory and cell death-inducing efficacy of ACP52C was confirmed by FACS analysis by treating cells with ACPS2C after synchronizing the cell cycle to the G1/S phase through a double thymidine block method.

[9] = tested on: A549 cell line in which MDM2 overexpression is chronically induced; assay: MTT assay in A549 cell line with chronically induced MDM2 overexpression; type: cell-based; settings: doxycycline for 3 weeks, MDM2p90 overexpressed
Excerpt: as §1

[10] = ACP52C-induced G2/M phase arrest

CC(=O)N[C@@H](CC(N)=O)C(=O)N[C@@H](Cc1ccc(O)cc1)C(=O)N1CCC[C@H]1C(=O)N[C@@H](CCC(N)=O)C(=O)N[C@@H](CCCNC(=N)N)C(=O)N1CCC[C@H]1C(=O)N[C@@H](CS)C(=O)N[C@@H](CCCNC(=N)N)C(=O)NCC(=O)N[C@@H](CC(=O)O)C(=O)N[C@@H](CCCCN)C(=O)NCC(=O)N1CCC[C@H]1C(=O)N[C@@H](CC(=O)O)C(=O)N[C@@H](CS)C(N)=O [ACP52C] (Ac-NYPQRPCRGDKGPDC-NH2)
expression of MDM2 (p90 and p60) [1]: no decrease in the expression | expression of YY1 [1]: decreased | expression of p53, p63 and p73 [1]: did not show any change | degradation in solution containing 10% serum [2]: not degraded at all until 24 hours | cell death induction mechanism [3]: apoptosis via activation of caspases | expression of CDC25c, CDK1, and cyclin B proteins [3, 10]: decreased expression of CDC25c, CDK1, and cyclin B proteins | expression of CHK1/2 protein [3, 10]: increased expression of CHK1/2 protein | half-life in mouse blood [4]: about 2 hours | liver toxicity or adverse effect on major organs [5]: any liver toxicity or adverse effect on major organs was not observed | survival [5]: all the mice survived | immune response of sera from rabbits injected with ACP52CG and ACP52CK three times (ELISA) [6]: did not induce immune responses | growth inhibition and cell death efficacy [7]: cancer cell-specific growth inhibition and cell death efficacy | presence in cancer tissues after injection [8]: observed in cancer tissues even 5 days after injection | cell cycle effect (FACS) (cell cycle (G2/M, subG1); cell line synchronized to G2/M phase with thymidine/nocodazole): the cell cycle was arrested at the subG1 phase and cell death was induced | cell cycle effect (FACS) (cell cycle (G2/M, subG1); cells synchronized to G1/S phase by double thymidine block): cell cycle arrest at the G2/M phase | induction of cell death [9]: cell death was induced from the second week
